Reference: patent US6710032B1, “In situ formation of CLA” (University of Maryland, priority 1998, dated 2004)

What was measured:
[1] = test system: C57/B1/6J mice; assay: Example 6: mouse milk fat and milk/fecal fatty acids when fed 18:1 isomer diets; format: in vivo; details: for Milk fat on day 10 versus day 6 of lactation: isomer about 25% of dietary fat, fed four days, creamatocrit; for Level of the test isomer in milk, % of the fat: day 10, fed the isomer diet
From the text: C57/B1/6J mice fed a control diet (10 wt % fat) were switched to one of four isomer diets at day 6 of lactation after milk collection. Approximately 25% of the dietary fat (5 caloric %) during the treatment period was replaced with one of four specific isomers of oleic acid, either cis-9; cis-11; trans-9 or trans-11, other diet components were identical. The mice consumed these diets ad libitum for four days and were milked again on day 10 of lactation. Milk and fecal fatty acid composition was analyzed as fatty acid methyl esters by GC. Specific isomers were identified by relative retention times. Milk fat percentage was determined by the creamatocrit method and differences between day 6 and day 10 fat percentages were evaluated by a paired t-test.
A lactating mouse is milked after injection of oxytocin(0.2 ml of a 1 IU/ml solution) immediately prior to milking. Milking is accomplished by creating a suction through tube 26 and inserting the funnel end 28 or tube 26 onto the teat of a lactating mouse in the upside-down position. As milk is collected into the funnel, a small capillary tube (i.e. the same as that used to collect human blood samples) is manually positioned within the funnel to collect milk by capillary action. Failure to promptly collect the milk will expose the milk to evaporation thus increasing fat content of the sample.

[2] = test system: cows; assay: Ingestion of C18 trans 11 fats in cows, milk fat levels; details: in vivo

Row | SMILES | Milk fat on day 10 versus day 6 of lactation [1] | Level of the test isomer in milk, % of the fat [1] [%] | Milk fat levels in cows [2] | Milk fat on day 10 versus day 6 of lactation ([1]; listed as C18:1 t-11)
1 | CCCCCCCC/C=C\CCCCCCCC(=O)O [Cis-9, cis-9 18:1 fatty acid] | identical fat values on days 6 and 10 |  |  | 
2 | CCCCCC/C=C\CCCCCCCCCC(=O)O [cis-11, cis-11 18:1 fatty acid] | not statistically different | 10 |  | 
3 | CCCCCCCC/C=C/CCCCCCCC(=O)O [trans-9, trans-9 18:1 fatty acid] | statistically lower | 5.8 |  | 
4 | CCCCCC/C=C/CCCCCCCCCC(=O)O [trans-11, trans-11 18:1 fatty acid] | not statistically different | 3 | do not reduce milk fat levels | does not reduce milk fat
